Measurements from patent US10800789B2, “Antiviral compounds” (Gilead Pharmasset LLC, priority 2012, dated 2020).
Where two headings read alike, the source gives them in different places.

Experiments:
[1] = system: NS5A chimeric genotype 1b Con1 replicon with genotype 3a S52 strain NS5A gene; test: Replicon assay, genotype 3a NS5A chimera; type: cell-based, HCV; conditions: Hepatitis C virus
[2] = system: stable HCV 1a RLuc replicon cells (dicistronic genotype 1a H77 replicon); test: Renilla luciferase HCV replicon reporter assay, genotype 1a; type: cell-based; conditions: Hepatitis C virus, 72 h, stable 1a H77 RLuc replicon cells
Experimental: (§1) Evaluation of Cell-Based Anti-HCV Activity:
(§2) Antiviral potency (EC50) was determined using a Renilla luciferase (RLuc)-based HCV replicon reporter assay. To perform the assay for genotype 1 and 2a JFH-1, stable HCV 1a RLuc replicon cells (harboring a dicistronic genotype 1a H77 replicon that encodes a RLuc reporter), stable HCV 1b RLuc replicon cells (harboring a dicistronic genotype 1b Con1 replicon that encodes a RLuc reporter), or stable HCV 2a JFH-1 Rluc replicon cells (harboring a dicistronic genotype 2a JFH-1 replicon that encodes a RLuc reporter; with L31 present in NS5A) were dispensed into 384-well plates for EC50 assays. To perform the assay for genotype 2a (with M31 present in NS5A) or 2b, NS5A chimeric genotype 2a JFH-1 replicons that encodes a RLuc-Neo reporter and either genotype 2a J6 strain NS5A gene or genotype 2b MD2b-1 strain NS5A gene (both with M31 present) respectively, were either transiently transfected (t) into Huh-Lunet cells or were established as stably replicating replicon cells (s) is provided. Either cells were dispensed into 384-well plates for EC50 assays. To perform the assay for genotype 3 and 4, NS5A chimeric genotype 1b Con1 replicons that encodes a Pi-RLuc reporter and either genotype 3a S52 strain NS5A gene or genotype 4a ED43 strain NS5A gene respectively, were transiently transfected (t) into Huh-Lunet cells, which were subsequently dispensed into 384-well plates. Compounds were dissolved in DMSO at a concentration of 10 mM and diluted in DMSO either manually or using an automated pipeting instrument. Serially 3-fold diluted compounds were either manually mixed with cell culture media and added to the seeded cells or directly added to the cells using an automated instrument. DMSO was used as a negative (solvent; no inhibition) control, and the protease inhibitor ITMN-191 was included at a concentration>100×EC50 as a positive control. 72 hours later, cells were lysed and Renilla luciferase activity quantified as recommended by the manufacturer (Promega-Madison, Wis.). Non-linear regression was performed to calculate EC50 values.

[3] = system: stable HCV 2a JFH-1 Rluc replicon cells (L31 present in NS5A); test: Renilla luciferase HCV replicon reporter assay, genotype 2a JFH-1; type: cell-based; conditions: Hepatitis C virus
Experimental: as §1, §2

[4] = system: stable HCV 1b RLuc replicon cells (dicistronic genotype 1b Con1 replicon); test: Renilla luciferase HCV replicon reporter assay, genotype 1b; type: cell-based; conditions: Hepatitis C virus, 72 h, stable 1b Con1 RLuc replicon cells, 72 hours; read-out: 1b
Experimental: as §1, §2

[5] = system: NS5A chimeric genotype 2a JFH-1 replicon with genotype 2a J6 strain NS5A gene (M31 present); test: Replicon assay, genotype 2a J6 NS5A chimera; type: cell-based, HCV; conditions: Hepatitis C virus
Experimental: as §1, §2

[6] = system: NS5A chimeric genotype 2a JFH-1 replicon with genotype 2b MD2b-1 strain NS5A gene (M31 present); test: Replicon assay, genotype 2b NS5A chimera; type: cell-based, HCV; conditions: Hepatitis C virus
Experimental: as §1, §2

[7] = system: NS5A chimeric genotype 1b Con1 replicon with genotype 4a ED43 strain NS5A gene; test: Replicon assay, genotype 4a NS5A chimera; type: cell-based, HCV; conditions: Hepatitis C virus
[8] = read-out: 3a (s) (nM), genotype 3a NS5A chimeric replicon, stable replicon cells (s)
[9] = read-out: 3a (s), (s), activity range
[10] = read-out: 2a JFH (nM), genotype 2a JFH-1 replicon (L31 in NS5A), stable cells
[11] = read-out: 2a JFH, stable 2a JFH-1 Rluc replicon cells, L31 in NS5A, activity range
[12] = 2BS, read-out: 2b (s), stably replicating replicon cells (s), activity range
[13] = read-out: 2b (s) (nM), genotype 2b MD2b-1 NS5A chimeric replicon (M31), stably replicating replicon cells (s)
[14] = read-out: 4a (s) (nM), genotype 4a NS5A chimeric replicon, stable replicon cells (s)
[15] = read-out: 4a (s), (s), activity range

| SMILES | EC50 [1, 8] [nM] | EC50 [1, 9] [nM] | EC50 [2] [nM] | EC50 ([2]; activity range) [nM] | EC50 [3, 10] [nM] | EC50 [3, 11] [nM] | EC50 [4] [nM] | EC50 ([5]; read-out: 2a J6 (t) (nM), genotype 2a J6 NS5A chimeric replicon (M31), transiently transfected (t) into Huh-Lunet cells) [nM] | EC50 ([5]; read-out: 2a J6 (t), transiently transfected (t) into Huh-Lunet cells, activity range) [nM] | EC50 [6, 12] [nM] | EC50 [6, 13] [nM] | EC50 ([6]; read-out: 2b (t) (nM), genotype 2b MD2b-1 NS5A chimeric replicon (M31), transiently transfected (t)) [nM] | EC50 ([6]; read-out: 2b (t), transiently transfected (t) into Huh-Lunet cells, activity range) [nM] | EC50 [7, 14] [nM] | EC50 [7, 15] [nM] |
| --- | --- | --- | --- | --- | --- | --- | --- | --- | --- | --- | --- | --- | --- | --- | --- |
| COC(=O)N[C@H](C(=O)N1C[C@@H](C)C[C@H]1c1ncc(-c2ccc3c(c2)COc2cc4c(ccc5nc([C@@H]6CC[C@H](C)N6C(=O)[C@@H](NC(=O)OC)[C@@H](C)OC)[nH]c54)cc2-3)[nH]1)[C@@H](C)OC [DZ, Methyl [(2S,3R)-3-methoxy-1-{(2S,5S)-2-[9-(2-{(2S,5S)-1-[N-(methoxycarbonyl)-O-methyl-L-threonyl]-4-methylpyrrolidin-2-yl}-1H-imidazol-5-yl)-1,11-dihydroisochromeno[4′,3′:6,7]naphtho[1,2-d]imidazol-2-yl]-5-methylpyrrolidin-1-yl}-1-oxobutan-2-yl]carbamate] | 0.089 | < 0.1 | 0.021 | < 0.1 | 0.016 | < 0.1 | 0.035 | 0.054 | < 0.1 | 0.1 to 0.999 | 0.173 | 0.072 | < 0.1 | 0.02 | < 0.1 |
| CC[C@H](C)[C@H](NC(=O)OC)C(=O)N1[C@@H](C)CC[C@H]1c1nc2ccc3cc4c(cc3c2[nH]1)OCc1cc(-c2cnc([C@@H]3C[C@H](COC)CN3C(=O)[C@@H](NC(=O)OC)C(C)C)[nH]2)ccc1-4 [FS, Methyl {(2S,3S)-1-[(2S,5S)-2-(9-{2-[(2S,4S)-1-{(2S)-2-[(methoxycarbonyl)amino]-3-methylbutanoyl}-4-(methoxymethyl)pyrrolidin-2-yl]-1H-imidazol-5-yl}-1,11-dihydroisochromeno[4′,3′:6,7]naphtho[1,2-d]imidazol-2-yl)-5-methylpyrrolidin-1-yl]-3-methyl-1-oxopentan-2-yl}carbamate] | 0.411 | 0.1 to 0.999 | 0.024 | < 0.1 | 0.025 | < 0.1 | 0.025 |  |  | 0.1 to 0.999 | 0.784 |  |  | 0.017 | < 0.1 |
| CC[C@H](C)[C@H](NC(=O)OC)C(=O)N1C[C@@H](COC)C[C@H]1c1ncc(-c2ccc3c(c2)COc2cc4c(ccc5nc([C@@H]6CC[C@H](C)N6C(=O)[C@@H](NC(=O)OC)[C@@H](C)OC)[nH]c54)cc2-3)[nH]1 [FT, Methyl {(2S,3S)-1-[(2S,4S)-2-(5-{2-[(2S,5S)-1-{(2S,3R)-3-methoxy-2-[(methoxycarbonyl)amino]butanoyl}-5-methylpyrrolidin-2-yl]-1,11-dihydroisochromeno[4′,3′:6,7]naphtho[1,2-d]imidazol-9-yl}-1H-imidazol-2-yl)-4-(methoxymethyl)pyrrolidin-1-yl]-3-methyl-1-oxopentan-2-yl}carbamate] | 0.283 | 0.1 to 0.999 | 0.04 | < 0.1 | 0.029 | < 0.1 | 0.045 |  |  | 0.1 to 0.999 | 0.395 |  |  | 0.028 | < 0.1 |
| COC(=O)N[C@H](C(=O)N1[C@@H](C)CC[C@H]1c1ncc(-c2ccc3c(c2)COc2cc4c(ccc5nc([C@@H]6C[C@H](C)CN6C(=O)[C@@H](NC(=O)OC)[C@H](C)OC)[nH]c54)cc2-3)[nH]1)C(C)C [FU, Methyl {(2S)-1-[(2S,5S)-2-(5-{2-[(2S,4S)-1-{(2S,3S)-3-methoxy-2-[(methoxycarbonyl)amino]butanoyl}-4-methylpyrrolidin-2-yl]-1,11-dihydroisochromeno[4′,3′:6,7]naphtho[1,2-d]imidazol-9-yl}-1H-imidazol-2-yl)-5-methylpyrrolidin-1-yl]-3-methyl-1-oxobutan-2-yl}carbamate] | 0.337 | 0.1 to 0.999 | 0.028 | < 0.1 | 0.021 | < 0.1 | 0.032 |  |  | 0.1 to 0.999 | 0.347 |  |  | 0.018 | < 0.1 |
| COC[C@H]1C[C@@H](c2ncc(-c3ccc4c(c3)COc3cc5c(ccc6nc([C@@H]7CC[C@H](C)N7C(=O)[C@@H](NC(=O)OC)C(C)C)[nH]c65)cc3-4)[nH]2)N(C(=O)[C@@H](NC(=O)OC)C2CCOCC2)C1 [GI, Methyl [(2S)-1-{(2S,4S)-2-[9-(2-{(2S,5S)-1-[(2S)-2-[(methoxycarbonyl)amino]-2-(tetrahydro-2H-pyran-4-yl)acetyl]-4-(methoxymethyl)pyrrolidin-2-yl}-1H-imidazol-5-yl)-1,11-dihydroisochromeno[4′,3′:6,7]naphtho[1,2-d]imidazol-2-yl]-5-methylpyrrolidin-1-yl}-3-methyl-1-oxobutan-2-yl]carbamate] | 0.126 | 0.1 to 0.999 | 0.055 | < 0.1 | 0.025 | < 0.1 | 0.064 |  |  | 0.1 to 0.999 | 0.193 |  |  | 0.022 | < 0.1 |
| CC[C@H]1CC[C@@H](c2ncc(-c3ccc4c(c3)COc3cc5c(ccc6nc([C@@H]7CC[C@H](C)N7C(=O)[C@@H](NC(=O)OC)[C@@H](C)CC)[nH]c65)cc3-4)[nH]2)N1C(=O)C(NC(=O)OC)C1CCOCC1 (some centres unmarked) [IJ] | 0.127 | 0.1 to 0.999 | 0.027 | < 0.1 | 0.012 | < 0.1 | 0.029 |  |  | 0.1 to 0.999 | 0.212 |  |  | 0.036 | < 0.1 |
| CC[C@H]1CC[C@@H](c2ncc(-c3ccc4c(c3)COc3cc5c(ccc6nc([C@@H]7CC[C@H](C)N7C(=O)[C@@H](NC(=O)OC)C7CCOCC7)[nH]c65)cc3-4)[nH]2)N1C(=O)[C@@H](NC(=O)OC)[C@@H](C)CC [IM] | 0.15 | 0.1 to 0.999 | 0.033 | < 0.1 | 0.016 | < 0.1 | 0.04 |  |  | 0.1 to 0.999 | 0.212 |  |  | 0.043 | < 0.1 |
| CC[C@H]1CC[C@@H](c2nc3ccc4cc5c(cc4c3[nH]2)OCc2cc(-c3cnc([C@@H]4C[C@@H]6CCC[C@@H]6N4C(=O)[C@@H](NC(=O)OC)[C@@H](C)CC)[nH]3)ccc2-5)N1C(=O)[C@@H](NC(=O)OC)C1CCOCC1 [IX] | 0.246 | 0.1 to 0.999 | 0.035 | < 0.1 | 0.024 | < 0.1 | 0.052 |  |  | 0.1 to 0.999 | 0.236 |  |  | 0.057 | < 0.1 |
